Values of other authors as cited in patent US20230023289A1, “ANTHRANILAMIDE COMPOSITION” (priority 2019, published 2023).

Molecular target: insect ryanodine receptors (Drosophila melanogaster, UniProt Q24498)
Settings: in words

Sequence of insect ryanodine receptors (Q24498 whole entry): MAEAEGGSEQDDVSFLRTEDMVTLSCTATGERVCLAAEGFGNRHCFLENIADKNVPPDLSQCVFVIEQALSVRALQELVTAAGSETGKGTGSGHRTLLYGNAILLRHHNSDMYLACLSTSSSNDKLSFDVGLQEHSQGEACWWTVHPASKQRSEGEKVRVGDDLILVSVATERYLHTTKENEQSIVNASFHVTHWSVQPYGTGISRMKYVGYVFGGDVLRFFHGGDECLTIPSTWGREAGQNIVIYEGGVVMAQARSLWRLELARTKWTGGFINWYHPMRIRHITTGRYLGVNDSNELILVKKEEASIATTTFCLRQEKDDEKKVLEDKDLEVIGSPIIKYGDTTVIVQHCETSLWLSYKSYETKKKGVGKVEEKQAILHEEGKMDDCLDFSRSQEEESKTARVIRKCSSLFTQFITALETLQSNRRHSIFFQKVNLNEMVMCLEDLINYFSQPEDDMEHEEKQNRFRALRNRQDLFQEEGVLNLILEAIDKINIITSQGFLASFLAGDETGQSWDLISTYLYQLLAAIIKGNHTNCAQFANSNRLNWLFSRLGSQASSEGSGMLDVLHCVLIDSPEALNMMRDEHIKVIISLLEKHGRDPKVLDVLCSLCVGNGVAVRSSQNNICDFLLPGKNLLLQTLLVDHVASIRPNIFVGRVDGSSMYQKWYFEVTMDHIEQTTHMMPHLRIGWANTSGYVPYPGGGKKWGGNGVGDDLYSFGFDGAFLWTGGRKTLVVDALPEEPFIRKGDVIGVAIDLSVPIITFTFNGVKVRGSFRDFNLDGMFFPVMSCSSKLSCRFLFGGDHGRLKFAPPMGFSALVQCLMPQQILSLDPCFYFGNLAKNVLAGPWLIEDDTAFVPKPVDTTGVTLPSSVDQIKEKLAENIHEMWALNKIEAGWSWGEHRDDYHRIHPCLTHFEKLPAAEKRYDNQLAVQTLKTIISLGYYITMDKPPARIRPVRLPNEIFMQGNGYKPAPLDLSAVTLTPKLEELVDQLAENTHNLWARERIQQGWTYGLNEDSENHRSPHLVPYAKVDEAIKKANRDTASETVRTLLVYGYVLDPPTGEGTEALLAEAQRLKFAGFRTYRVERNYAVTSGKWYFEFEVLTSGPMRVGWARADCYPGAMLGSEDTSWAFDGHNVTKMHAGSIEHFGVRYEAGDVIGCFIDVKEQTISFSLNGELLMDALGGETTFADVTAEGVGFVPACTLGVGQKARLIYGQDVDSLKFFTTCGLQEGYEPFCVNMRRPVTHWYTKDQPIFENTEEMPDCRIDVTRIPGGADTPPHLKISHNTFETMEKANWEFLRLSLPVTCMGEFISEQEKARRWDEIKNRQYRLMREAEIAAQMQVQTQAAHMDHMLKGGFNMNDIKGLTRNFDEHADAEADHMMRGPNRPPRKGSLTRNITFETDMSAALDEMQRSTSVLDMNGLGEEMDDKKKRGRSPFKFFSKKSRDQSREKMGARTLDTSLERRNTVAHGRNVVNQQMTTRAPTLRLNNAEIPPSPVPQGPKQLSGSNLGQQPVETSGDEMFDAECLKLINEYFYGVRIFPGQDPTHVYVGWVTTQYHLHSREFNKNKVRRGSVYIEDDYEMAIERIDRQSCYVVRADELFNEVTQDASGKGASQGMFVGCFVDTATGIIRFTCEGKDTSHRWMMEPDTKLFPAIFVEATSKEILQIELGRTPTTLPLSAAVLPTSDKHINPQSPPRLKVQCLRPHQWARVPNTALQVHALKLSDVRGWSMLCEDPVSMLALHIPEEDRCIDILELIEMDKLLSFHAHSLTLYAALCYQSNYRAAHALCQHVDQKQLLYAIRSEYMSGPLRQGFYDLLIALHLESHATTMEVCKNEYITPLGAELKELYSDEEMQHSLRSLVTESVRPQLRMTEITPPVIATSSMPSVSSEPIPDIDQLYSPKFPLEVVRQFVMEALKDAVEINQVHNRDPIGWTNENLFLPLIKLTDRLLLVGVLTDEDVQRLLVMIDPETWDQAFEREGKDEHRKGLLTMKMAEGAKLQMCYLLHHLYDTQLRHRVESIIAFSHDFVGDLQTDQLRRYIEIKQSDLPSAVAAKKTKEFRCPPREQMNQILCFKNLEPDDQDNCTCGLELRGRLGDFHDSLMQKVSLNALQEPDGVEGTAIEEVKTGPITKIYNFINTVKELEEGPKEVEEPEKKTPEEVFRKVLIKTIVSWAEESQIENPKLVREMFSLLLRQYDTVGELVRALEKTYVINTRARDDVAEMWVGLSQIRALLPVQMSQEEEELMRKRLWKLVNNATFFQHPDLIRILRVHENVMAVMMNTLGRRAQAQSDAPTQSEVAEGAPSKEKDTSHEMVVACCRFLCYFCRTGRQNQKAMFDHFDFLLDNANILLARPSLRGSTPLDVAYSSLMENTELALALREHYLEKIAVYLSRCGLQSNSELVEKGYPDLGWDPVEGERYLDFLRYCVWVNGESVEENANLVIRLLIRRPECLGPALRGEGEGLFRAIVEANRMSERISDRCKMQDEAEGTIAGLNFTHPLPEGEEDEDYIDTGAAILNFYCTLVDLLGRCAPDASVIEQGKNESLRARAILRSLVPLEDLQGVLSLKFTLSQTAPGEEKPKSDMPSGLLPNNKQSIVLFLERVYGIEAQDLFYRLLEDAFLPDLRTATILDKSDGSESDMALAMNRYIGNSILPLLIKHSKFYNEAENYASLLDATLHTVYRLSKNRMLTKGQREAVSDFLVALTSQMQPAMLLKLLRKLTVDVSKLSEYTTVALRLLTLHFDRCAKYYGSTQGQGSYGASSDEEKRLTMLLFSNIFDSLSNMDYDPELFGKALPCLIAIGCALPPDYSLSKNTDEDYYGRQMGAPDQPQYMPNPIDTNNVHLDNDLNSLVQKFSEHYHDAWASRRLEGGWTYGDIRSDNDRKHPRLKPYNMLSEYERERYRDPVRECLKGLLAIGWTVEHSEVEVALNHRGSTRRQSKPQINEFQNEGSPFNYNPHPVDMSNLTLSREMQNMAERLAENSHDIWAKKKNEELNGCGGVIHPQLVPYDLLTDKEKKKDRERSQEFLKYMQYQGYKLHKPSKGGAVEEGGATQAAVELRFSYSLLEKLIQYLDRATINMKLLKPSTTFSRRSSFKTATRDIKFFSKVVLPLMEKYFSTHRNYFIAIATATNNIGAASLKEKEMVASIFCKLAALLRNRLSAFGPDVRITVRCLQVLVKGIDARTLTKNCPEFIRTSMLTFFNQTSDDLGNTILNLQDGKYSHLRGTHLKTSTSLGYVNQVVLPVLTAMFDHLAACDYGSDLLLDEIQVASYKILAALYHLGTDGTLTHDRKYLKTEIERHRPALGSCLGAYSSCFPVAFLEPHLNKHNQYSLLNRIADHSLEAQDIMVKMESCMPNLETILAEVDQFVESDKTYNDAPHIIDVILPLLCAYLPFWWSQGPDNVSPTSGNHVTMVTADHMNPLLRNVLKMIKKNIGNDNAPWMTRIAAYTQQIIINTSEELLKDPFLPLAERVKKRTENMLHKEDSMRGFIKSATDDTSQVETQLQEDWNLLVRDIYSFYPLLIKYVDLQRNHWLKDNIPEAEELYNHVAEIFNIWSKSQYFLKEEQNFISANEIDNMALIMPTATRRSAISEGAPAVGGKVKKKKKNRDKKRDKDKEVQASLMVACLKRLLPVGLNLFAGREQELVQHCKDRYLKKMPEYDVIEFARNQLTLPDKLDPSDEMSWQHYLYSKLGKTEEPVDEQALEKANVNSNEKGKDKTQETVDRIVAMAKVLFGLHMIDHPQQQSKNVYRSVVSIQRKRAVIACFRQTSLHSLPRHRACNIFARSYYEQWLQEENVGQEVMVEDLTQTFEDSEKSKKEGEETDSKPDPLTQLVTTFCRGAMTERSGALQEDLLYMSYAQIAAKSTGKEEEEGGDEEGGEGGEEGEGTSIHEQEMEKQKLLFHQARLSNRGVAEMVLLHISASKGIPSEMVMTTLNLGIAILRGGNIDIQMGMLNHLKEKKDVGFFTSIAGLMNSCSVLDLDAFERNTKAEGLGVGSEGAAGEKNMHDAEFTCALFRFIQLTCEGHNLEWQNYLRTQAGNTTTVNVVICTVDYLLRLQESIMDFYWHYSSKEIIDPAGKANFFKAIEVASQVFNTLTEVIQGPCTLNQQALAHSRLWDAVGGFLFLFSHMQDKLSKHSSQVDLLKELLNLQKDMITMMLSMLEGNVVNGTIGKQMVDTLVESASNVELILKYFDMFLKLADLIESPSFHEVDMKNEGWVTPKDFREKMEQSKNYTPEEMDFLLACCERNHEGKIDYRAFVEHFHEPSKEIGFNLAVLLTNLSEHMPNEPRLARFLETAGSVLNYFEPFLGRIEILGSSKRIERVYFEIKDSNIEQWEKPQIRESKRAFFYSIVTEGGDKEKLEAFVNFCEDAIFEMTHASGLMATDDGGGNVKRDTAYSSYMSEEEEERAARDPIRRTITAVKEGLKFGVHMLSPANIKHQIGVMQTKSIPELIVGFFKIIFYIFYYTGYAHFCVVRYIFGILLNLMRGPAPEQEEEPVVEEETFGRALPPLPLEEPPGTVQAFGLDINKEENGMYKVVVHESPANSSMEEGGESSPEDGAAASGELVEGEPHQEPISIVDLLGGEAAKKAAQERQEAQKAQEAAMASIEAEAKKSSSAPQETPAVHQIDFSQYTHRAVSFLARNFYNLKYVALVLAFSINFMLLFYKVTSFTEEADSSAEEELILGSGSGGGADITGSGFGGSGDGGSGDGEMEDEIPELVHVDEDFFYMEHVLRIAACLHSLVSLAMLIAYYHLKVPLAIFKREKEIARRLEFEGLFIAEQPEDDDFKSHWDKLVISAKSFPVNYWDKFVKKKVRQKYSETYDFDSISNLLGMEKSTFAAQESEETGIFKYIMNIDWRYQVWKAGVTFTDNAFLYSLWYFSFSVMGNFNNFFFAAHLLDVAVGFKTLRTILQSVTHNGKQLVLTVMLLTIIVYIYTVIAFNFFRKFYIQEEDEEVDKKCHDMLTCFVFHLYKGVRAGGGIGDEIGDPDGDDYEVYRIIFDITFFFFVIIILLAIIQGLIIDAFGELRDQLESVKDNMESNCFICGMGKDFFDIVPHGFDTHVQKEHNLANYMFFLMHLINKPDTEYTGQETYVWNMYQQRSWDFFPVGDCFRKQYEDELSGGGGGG

CNC(=O)c1cc(Cl)cc(C)c1NC(=O)c1cc(Br)nn1-c1ncccc1Cl [chlorantraniliprole, 5-bromo-N-[4-chloro-2-methyl-6-(methylcarbamoyl)phenyl]-2-(3-chloropyridin-2-yl)pyrazole-3-carboxamide]
Selectivity for insect ryanodine receptors over mammalian ryanodine receptors: excellent differential selectivity
